# Test results reported in ChEMBL document CHEMBL6177950, “Discovery of potent and selective CDK2 inhibitors with high safety and favorable bioavailability for the treatment of cancer” (Eur J Med Chem, 2025).
# Active and inactive are the calls of the source. No cut-off for these calls is given here.
# What was measured:
# OVCAR-3 [1] = experiment: Induction of apoptosis in human OVCAR-3 cells assessed as upregulation of PARP cleavage incubated for 24 hrs by Western blot analysis; assay type: functional, cell-based
# OVCAR-3 [2] = experiment: Induction of cell cycle arrest in human OVCAR-3 cells assessed as inhibition of RB phosphorylation level incubated for 24 hrs by Western blot analysis; assay type: functional, cell-based
# OVCAR-3 [3] = experiment: Induction of cell senescence in human OVCAR-3 cells assessed as increase in beta galactosidase activity incubated for 24 hrs by staining based inverted microscopic analysis; assay type: functional; conditions: dose 1-2 µM
# [4] = Antiproliferative activity against CCNE1-amplified human OVCAR-3 cells assessed as cell growth inhibition incubated for 3 days by CCK8 assay; assay type: functional, cell-based; conditions: OVCAR-3, 72 h
# [5] = target: Cyclin-dependent kinase 4/cyclin D1 (Homo sapiens, UniProt P11802); experiment: Inhibition of CDK4/Cyclin D1 (unknown origin) pre-incubated for 10 mins followed by ATP/substrate addition and measured after 60 mins by ADP-Glo assay; assay type: protein-complex assay
# Chain of Cyclin-dependent kinase 4/cyclin D1 (P11802 whole entry): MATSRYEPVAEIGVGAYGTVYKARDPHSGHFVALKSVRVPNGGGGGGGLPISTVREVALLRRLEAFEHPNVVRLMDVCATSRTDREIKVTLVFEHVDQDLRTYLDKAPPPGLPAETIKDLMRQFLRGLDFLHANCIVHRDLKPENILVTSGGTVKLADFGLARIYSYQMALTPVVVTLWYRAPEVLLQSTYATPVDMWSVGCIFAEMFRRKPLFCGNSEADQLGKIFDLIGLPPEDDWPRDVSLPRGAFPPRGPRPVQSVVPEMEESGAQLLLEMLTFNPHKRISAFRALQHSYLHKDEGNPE
# Chain of Cyclin-dependent kinase 4/cyclin D1 (P24385 whole entry, further chain): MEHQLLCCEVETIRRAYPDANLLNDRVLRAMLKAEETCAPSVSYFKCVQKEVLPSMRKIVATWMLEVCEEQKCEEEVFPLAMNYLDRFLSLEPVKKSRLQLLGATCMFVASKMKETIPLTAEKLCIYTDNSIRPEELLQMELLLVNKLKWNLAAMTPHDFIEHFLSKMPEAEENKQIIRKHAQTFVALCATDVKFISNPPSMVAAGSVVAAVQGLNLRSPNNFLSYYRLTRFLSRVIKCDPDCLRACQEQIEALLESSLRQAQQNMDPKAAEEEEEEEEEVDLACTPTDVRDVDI
# CDK6/cyclin D3 = CDK6/cyclin D3 (Homo sapiens, UniProt Q00534); experiment: Inhibition of CDK6/Cyclin D3 (unknown origin) pre-incubated for 10 mins followed by ATP/substrate addition and measured after 120 mins by ADP-Glo assay; assay type: protein-complex assay
# Chain of CDK6/cyclin D3 (P30281 whole entry): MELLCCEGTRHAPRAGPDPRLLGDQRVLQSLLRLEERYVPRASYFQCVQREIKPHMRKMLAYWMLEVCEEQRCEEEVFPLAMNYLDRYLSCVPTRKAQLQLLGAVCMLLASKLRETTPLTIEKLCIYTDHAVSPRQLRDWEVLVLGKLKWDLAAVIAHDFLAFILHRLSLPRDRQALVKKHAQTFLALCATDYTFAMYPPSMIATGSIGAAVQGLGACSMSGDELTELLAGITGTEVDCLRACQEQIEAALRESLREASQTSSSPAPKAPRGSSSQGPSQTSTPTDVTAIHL
# Chain of CDK6/cyclin D3 (Q00534 whole entry): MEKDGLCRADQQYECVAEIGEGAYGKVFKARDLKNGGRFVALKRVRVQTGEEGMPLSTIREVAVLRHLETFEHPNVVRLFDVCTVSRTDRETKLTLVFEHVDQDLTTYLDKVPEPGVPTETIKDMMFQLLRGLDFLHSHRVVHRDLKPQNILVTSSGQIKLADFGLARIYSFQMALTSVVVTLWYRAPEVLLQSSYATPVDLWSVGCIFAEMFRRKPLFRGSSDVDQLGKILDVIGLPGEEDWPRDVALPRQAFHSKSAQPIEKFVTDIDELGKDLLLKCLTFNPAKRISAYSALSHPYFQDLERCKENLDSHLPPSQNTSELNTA
# OVCAR-3 [6] = experiment: Induction of cell cycle arrest in human OVCAR-3 cells assessed as accumulation of cells at G1 phase at 2 uM incubated for 24 hrs by flow cytometry analysis (reference value: 67.73%); assay type: functional
# OVCAR-3 [7] = experiment: Induction of cell cycle arrest in human OVCAR-3 cells assessed as accumulation of cells at G2 phase at 2 uM incubated for 24 hrs by flow cytometry analysis (reference value: 21.77%); assay type: functional
# OVCAR-3 [8] = experiment: Induction of apoptosis in human OVCAR-3 cells assessed as viable cells at 1 uM incubated for 24 hrs by Annexin V-FITC/PI staining based flow cytometry analysis (reference value: 95.2%); assay type: functional; conditions: read-out: Activity
# OVCAR-3 [9] = experiment: Induction of apoptosis in human OVCAR-3 cells assessed as early apoptotic cells at 1 uM incubated for 24 hrs by Annexin V-FITC/PI staining based flow cytometry analysis (reference value: 1.25%); assay type: functional
# OVCAR-3 [10] = experiment: Induction of apoptosis in human OVCAR-3 cells assessed as late apoptotic cells at 1 uM incubated for 24 hrs by Annexin V-FITC/PI staining based flow cytometry analysis (reference value: 2.67%); assay type: functional
# OVCAR-3 [11] = experiment: Induction of apoptosis in human OVCAR-3 cells assessed as necrotic cells at 1 uM incubated for 24 hrs by Annexin V-FITC/PI staining based flow cytometry analysis (reference value: 0.87%); assay type: functional
# OVCAR-3 [12] = experiment: Induction of apoptosis in human OVCAR-3 cells assessed as viable cells at 2 uM incubated for 24 hrs by Annexin V-FITC/PI staining based flow cytometry analysis (reference value: 95.2%); assay type: functional; conditions: read-out: Activity
# OVCAR-3 [13] = experiment: Induction of apoptosis in human OVCAR-3 cells assessed as necrotic cells at 2 uM incubated for 24 hrs by Annexin V-FITC/PI staining based flow cytometry analysis (reference value: 0.87%); assay type: functional
# OVCAR-3 [14] = experiment: Upregulation of apoptosis-related signaling pathway gene expression in human OVCAR-3 cells by GSEA; assay type: functional, cell-based
# OVCAR-3 [15] = experiment: Upregulation of JUN gene expression in human OVCAR-3 cells by GSEA; assay type: functional, cell-based
# OVCAR-3 [16] = experiment: Upregulation of JUNB gene expression in human OVCAR-3 cells by GSEA; assay type: functional, cell-based
# OVCAR-3 [17] = experiment: Antitumor activity against human OVCAR-3 cells xenografted in nude BALB/c mouse model assessed as tumor growth inhibition administered as po once daily for 21 days; assay type: functional, organism-based; conditions: dose 40-80 mg/kg, time 21.0 day
# [18] = Toxicity in nude BALB/c mouse xenografted with human OVCAR-3 cells assessed as increase in body weight at 40 to 80 mg/kg, po administered once daily for 21 days; assay type: organism-based; conditions: in vivo, 504 h, dose 40-80 mg/kg, time 21 day
# OVCAR-3 [19] = experiment: Antitumor activity against human OVCAR-3 cells xenografted in nude BALB/c mouse assessed as reduction in tumor cells at 40 to 80 mg/kg, po administered once daily for 21 days by H and E staining analysis; assay type: functional, organism-based; conditions: dose 40-80 mg/kg, time 21.0 day
# OVCAR-3 [20] = experiment: Antitumor activity against human OVCAR-3 cells xenografted in nude BALB/c mouse assessed as suppression of tumor cell proliferation at 40 to 80 mg/kg, po administered once daily for 21 days by Ki67 staining based analysis; assay type: functional, organism-based; conditions: dose 40-80 mg/kg, time 21.0 day
# MCF7 = experiment: Antiproliferative activity against wild type human MCF7 cells assessed as cell growth inhibition; assay type: functional, cell-based
# [21] = Antiproliferative activity against Palbociclib-resistance human MCF7 cells assessed as cell growth inhibition; assay type: functional, cell-based, Palbociclib-resistant MCF7 cell
# [22] = Acute toxicity in ICR mouse assessed as increase in body weight at 1000 to 2500 mg/kg, po administered once and measured after 1 week; assay type: organism-based; conditions: in vivo, 168 h, dose 1000-2500 mg/kg, time 1 weeks
# [23] = Acute toxicity in ICR mouse assessed as effect on heart weight at 1000 to 2500 mg/kg, po administered once for 14 days; assay type: organism-based; conditions: in vivo, 336 h, dose 1000-2500 mg/kg, time 14 day
# [24] = Acute toxicity in ICR mouse assessed as effect on liver weight at 1000 to 2500 mg/kg, po administered once for 14 days; assay type: organism-based; conditions: in vivo, 336 h, dose 1000-2500 mg/kg, time 14 day
# [25] = Acute toxicity in ICR mouse assessed as effect on spleen weight at 1000 to 2500 mg/kg, po administered once for 14 days; assay type: organism-based; conditions: in vivo, 336 h, dose 1000-2500 mg/kg, time 14 day
# [26] = Acute toxicity in ICR mouse assessed as effect on lung weight at 1000 to 2500 mg/kg, po administered once for 14 days; assay type: organism-based; conditions: in vivo, 336 h, dose 1000-2500 mg/kg, time 14 day
# [27] = Acute toxicity in ICR mouse assessed as pathological changes in lung at 1000 to 2500 mg/kg, po administered once for 14 days by H and E staining analysis; assay type: organism-based; conditions: in vivo, 336 h, dose 1000-2500 mg/kg, time 14 day
# [28] = C0 in Sprague-Dawley rat at 2 mg/kg, iv by LC-MS/MS analysis; assay type: ADME, organism-based; conditions: in vivo
# [29] = Half life in Sprague-Dawley rat at 2 mg/kg, iv by LC-MS/MS analysis; assay type: ADME, organism-based; conditions: in vivo
# [30] = MRT (0 to infinity) in Sprague-Dawley rat at 2 mg/kg, iv by LC-MS/MS analysis; assay type: ADME, organism-based; conditions: in vivo
# [31] = AUC (0 to infinity) in Sprague-Dawley rat at 20 mg/kg, po by LC-MS/MS analysis; assay type: ADME, organism-based; conditions: in vivo
# [32] = Tmax in Sprague-Dawley rat at 20 mg/kg, po by LC-MS/MS analysis; assay type: ADME, organism-based; conditions: in vivo
# [33] = MRT (0 to infinity) in Sprague-Dawley rat at 20 mg/kg, po by LC-MS/MS analysis; assay type: ADME, organism-based; conditions: in vivo
# [34] = Oral bioavailability in Sprague-Dawley rat at 20 mg/kg by LC-MS/MS analysis; assay type: ADME, organism-based; conditions: in vivo
# [35] = Acute toxicity in ICR mouse assessed as reduction in body weight at 1000 to 2500 mg/kg, po administered once and measured immediately; assay type: organism-based; conditions: in vivo, dose 1000-2500 mg/kg
# OVCAR-3 [36] = experiment: Induction of apoptosis in human OVCAR-3 cells incubated for 24 hrs by Annexin V-FITC/PI staining based flow cytometry analysis; assay type: functional, cell-based; conditions: dose 1-2 µM
smiles,measurement,setting,value
CCC(C)n1cc(-c2nc(NC3CCN(S(=O)(=O)C4CC4)CC3)ncc2F)cc(F)c1=O (stereo not drawn),Activity,OVCAR-3 [1],Dose-dependent-effect
same,Activity,OVCAR-3 [2],Active
same,Activity,OVCAR-3 [3],Dose-dependent-effect
same,IC50,[4],1610 nM
same,IC50,[5],103 nM
same,IC50,CDK6/cyclin D3,171 nM
same,Activity,OVCAR-3 [6],96.27%
same,Activity,OVCAR-3 [7],2.09%
same,viability at 1 µM,OVCAR-3 [8],84.6%
same,Activity,OVCAR-3 [9],2.65%
same,Activity,OVCAR-3 [10],7.72%
same,Activity,OVCAR-3 [11],5.01%
same,viability at 2 µM,OVCAR-3 [12],79.3%
same,Activity,OVCAR-3 [13],3.74%
same,Activity,OVCAR-3 [14],Active
same,Activity,OVCAR-3 [15],Active
same,Activity,OVCAR-3 [16],Active
same,Activity,OVCAR-3 [17],Dose-dependent-effect
same,Activity,[18],Non-toxic
same,Activity,OVCAR-3 [19],Active
same,Activity,OVCAR-3 [20],Active
same,IC50,MCF7,186 nM
same,IC50,[21],954 nM
same,Activity,[22],Non-toxic
same,Activity,[23],Non-toxic
same,Activity,[24],Non-toxic
same,Activity,[25],Non-toxic
same,Activity,[26],Non-toxic
same,Activity,[27],Non-toxic
same,C0,[28],1670 ng/mL
same,half-life,[29],55.8 min
same,MRT inf,[30],49.2 min
same,AUC(0-inf),[31],11800 ng·h/mL
same,Tmax,[32],30 min
same,MRT inf,[33],6.7 h
same,bioavailability,[34],79.5%
same,Activity,[35],Toxic
same,Activity,OVCAR-3 [36],Dose-dependent-effect
